Biological target: Prothrombin (Homo sapiens, UniProt P00734)
Test: Inhibition of human thrombin after 15 mins by standard chromogenic assay

Ki | Structure (SMILES)
58 nM | CC(C)(CNc1ccc(Cl)c(CC(=O)NCCONC(=N)N)c1F)c1ccccn1
1.8 nM | NC(N)=NOCCNC(=O)Cc1c(Cl)ccc(NCC(F)(F)c2ccc(Cl)cn2)c1F
8.6 nM | NC(N)=NOCCNC(=O)Cc1c(Cl)ccc(NCC(F)(F)c2ccccn2)c1F
128 nM | CC(C)(CNc1ccc(Cl)c(CC(=O)NCCONC(=N)N)c1F)c1cccnc1
142 nM | N=C(N)NOCCNC(=O)Cc1c(Cl)ccc(NCC2(c3cccnc3)CC2)c1F
10.3 nM | Cc1nc(N)ccc1CNC(=O)Cc1c(Cl)ccc(NCC(F)(F)c2ccccc2)c1F
169 nM | N=C(N)NOCCNC(=O)Cc1c(Cl)ccc(NCC(F)(F)c2cnc3ccccc3c2)c1F
1280 nM | N=C(N)NOCCNC(=O)Cc1c(Cl)ccc(NS(=O)(=O)c2ccccc2)c1F
33.9 nM | NC(N)=NOCCNC(=O)Cc1c(Cl)ccc(NCC(F)(F)c2cccnc2)c1F
57 nM | N=C(N)NOCCNC(=O)Cc1c(Cl)ccc(NCC2(c3ccccn3)CC2)c1F

Structure (SMILES) | Ki
N=C(N)NOCCNC(=O)Cc1c(Cl)ccc(NCC(F)(F)c2cccc3cccnc23)c1F | 2.7 nM
NC(N)=NOCCNC(=O)Cc1c(Cl)ccc(NCC(F)(F)c2cccc3cnccc23)c1F | 4.7 nM
Cc1nc(N)ccc1CNC(=O)Cc1c(Cl)ccc(NCC(F)(F)c2ccc(Cl)cn2)c1F | 0.7 nM
Cc1nc(N)ccc1CNC(=O)Cc1c(Cl)ccc(NCC(F)(F)c2ccc(Cl)c[n+]2[O-])c1F | 0.9 nM

— ChEMBL document CHEMBL1140519, “2-(2-Chloro-6-fluorophenyl)acetamides as potent thrombin inhibitors” (Bioorg Med Chem Lett, 2007)
